Test results as given in US7326700B2, “Cyclohexenyl phenyl carboxamides tocolytic oxytocin receptor antagonists” (Wyeth, priority 2001, dated 2008).
Structures can show the parent of a compound that is named as a salt.

Target: T1, human vasopressin V1a receptor subtype (Homo sapiens, UniProt P37288)
T1 construct: host or cells: CHO cells, stably transfected (pZeoSV vector for the Thibonnier line)
Assay: Vasopressin binding in CHO cell membranes expressing human vasopressin V1a subtype receptors ([3H]Manning ligand radioligand binding)
Conditions: for V1a % inhibition @ 100 nM / inhibition at 0.1 µM: 100 nM; for IC50: value in parentheses
Text: Chinese hamster ovary cells (CHO cells) stably transfected with the human vasopressin V1a subtype receptors were either obtained from Biosignal Inc., 1744 rue Williams, Montreal, Quebec, Canada or obtained from M. Thibonnier, Case Western Reserve University School of Medicine, Cleveland, Ohio.
CHO cells transfected with the human vasopressin V1a subtype receptors obtained from M. Thibonnier (pZeoSV vector) are allowed to grow to confluency (approx. >90%) in T-150 flasks under sterile conditions, in a cell culture medium consisting of F-12 Nutrient Mixture (HAM) with L-glutamine (Gibco Cat. #11765-054) containing 15 mM HEPES (Gibco Cat. #15630-080), 1% antibiotic/antimycotic (add 5 mL 100×, Gibco Cat. #15240-062 per 500 mL F-12), 250 μg/mL Zeocin (add 1.25 mL of 100 mg/mL Invitrogen R-250-01 per 500 mL F-12) and 10% Fetal Bovine Serum (Qualified, heat inactivated, Gibco Cat. #16140-063). The medium is removed by aspiration and the cells are washed with 10 mL of Hank's Balanced Salt solution (Gibco Cat. #14175-095). The salt solution is removed by aspiration and the cells are trypsinized with 5 mL of trypsin-EDTA (0.05% trypsin, 0.53 mM EDTA-4Na, Gibco Cat. #25300-070) for 1 min. The trypsin is removed by aspiration and the cells dislodged by tapping. Cell Culture medium (eg, 30 mL for 1:30 split) is immediately added and mixed well to inactivate trypsin. 1 mL of detached cells is added to new culture flasks containing fresh cell culture medium (eg, into 25 mL per T-150 flask), and mixed gently. The cells are incubated at 37° C. in 5% CO2. The medium is changed at 3 to 4 days interval (or as appropriate). The cells grow to confluency (approx. >75%-95%) within 7-8 days. All steps are done under sterile conditions.
The cells are washed twice gently with Hank's Balanced Salt solution (e.g,. use 10 mL per T-150 flask). The excess is removed and the cells are bathed for 15-30 min. in an enzyme-free Cell Dissociation Buffer (e.g. use 8 mL Hank's Based, Gibco Cat. #13150-016 per T-150 flask) until the cells are loosened. The contents are transferred to centrifuge tubes (50 mL) kept in an ice bath. All subsequent steps are done at 4° C. The tubes are centrifuged at 300×g for 15 min (1380 rpm on SORVAL, Model RT6000D, using the rotor for 50 mL tubes). The supernatant is discarded and the cells suspended in homogeneizing buffer (10 mM Tris-HCl containing 0.25 M sucrose and 1 mM EDTA, pH 7.4) ensuring that the volume of the buffer is about ten times the volume of the cell pellet. The cells are pooled into a centrifuge tube (50 mL) and homogenized with Polytron at setting 6 for 10 sec. The homogenate is transferred into a Potter-Elvjehm homogenizer and homogenized with 3 strokes. The homogenate is centrifuged at 1500×g for 10 min at 4° C. (3100 rpm using SORVAL, model RT6000D, using the rotor for 50 mL tubes). The pellet is discarded. The supernatant is centrifuged at 100,000×g for 60 min. at 4° C. (Beckman L8-80M ultracentrifuge; spin at 37,500 rpm with rotor type 70 Ti for 50 mL tubes; 38,000 rpm with type 80Ti for 15 mL tubes; or 35,800 rpm with rotor type 45Ti). The supernantant is discarded and the pellet suspended in 3 to 4 mL of Tris buffer (50 mM TRIS-HCl, pH 7.4). The protein content is estimated by the Bradford or Lowry method. The volume of the membrane suspension is adjusted with the membrane buffer (50 mM Tris-HCl containing 0.1% BSA and 0.1 mM PMSF) to give 3.0 mg/mL (or as appropriate) of protein. The membranes are aliquoted and stored at −70° C.
In wells of a 96-well format microtiter plate, is added 90, 110 or 130 μL (to make up a final volume of 200 μL) of assay buffer containing 50 mM of Tris-HCl (pH 7.4), BSA (heat inactivated, protease-free), […], 1 mg % aprotinin, 1 mg % leupeptin, 2 mg % 1,10-phenanthroline, 10 mg % trypsin inhibitor, and 0.1 mM PMSF. The inhibitors are added on the day of the experiment. […]

T1 sequence (P37288 whole entry): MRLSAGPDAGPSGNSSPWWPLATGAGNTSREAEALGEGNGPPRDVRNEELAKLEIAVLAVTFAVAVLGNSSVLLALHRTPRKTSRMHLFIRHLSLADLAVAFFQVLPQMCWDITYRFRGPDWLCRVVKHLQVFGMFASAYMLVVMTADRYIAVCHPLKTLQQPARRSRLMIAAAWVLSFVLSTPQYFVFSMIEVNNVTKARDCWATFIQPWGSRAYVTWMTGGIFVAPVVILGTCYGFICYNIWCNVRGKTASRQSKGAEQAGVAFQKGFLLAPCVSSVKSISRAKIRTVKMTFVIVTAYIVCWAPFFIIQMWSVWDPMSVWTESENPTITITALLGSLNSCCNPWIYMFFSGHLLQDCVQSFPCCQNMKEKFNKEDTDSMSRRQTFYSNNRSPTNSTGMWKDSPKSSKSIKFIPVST

V1a % inhibition @ 100 nM [%]	inhibition at 0.1 µM [%]	Compound	also measured
12	–	C=CCN1CCN(C(=O)c2ccc3n2Cc2ccccc2N(C(=O)c2ccc(C4=CCCCC4)c(C)c2)C3)CC1 [Example 24, (4-Allyl-1-piperazinyl){10-[4-(1-cyclohex-1-en-1-yl)-3-methylbenzoyl]-10,11-dihydro-5H-pyrrolo[2,1-c][1,4]benzodiazepin-3-yl}methanone]	–
55	–	Cc1cc(C(=O)N2Cc3ccc(C(=O)N(C)CCCN(C)C)n3Cc3ccccc32)ccc1C1=CCCCC1 [Example 16, 10-[4-(1-Cyclohex-1-en-1-yl)-3-methylbenzoyl]-N-[3-(dimethylamino)propyl]-N-methyl-10,11-dihydro-5H-pyrrolo[2,1-c][1 ,4]benzodiazepine-3-carboxamide]	–
–	4	Cc1cc(C(=O)N2Cc3ccc(C(=O)N4CCN(C)CC4)n3Cc3ccccc32)ccc1C1=CCCc2ccccc21 [Example 6, {10-[4-(3,4-Dihydro-naphthalen-1-yl)-3-methyl-benzoyl]-10,11-dihydro-5H-benzo[e]pyrrolo[1,2-a][1,4]diazepin-3-yl}-(4-methyl-piperazin-1-yl)-methanone]	–
28	–	Cc1cc(C(=O)N2Cc3ccc(C(=O)NCCC4CCCN4C)n3Cc3ccccc32)ccc1C1=CCCCC1 (stereo not shown) [Example 21, 10-[4-(1-Cyclohex-1-en-1-yl)-3-methylbenzoyl]-N-[2-(1-methyl-2-pyrrolidinyl)ethyl]-10,11-dihydro-5H-pyrrolo[2,1-c][1,4]benzodiazepine-3-carboxamide]	–
24	–	Cc1cc(C(=O)N2Cc3ccc(C(=O)NCCCN(C)C)n3Cc3ccccc32)ccc1C1=CCCCC1 [Example 14, 10-[4-(1-Cyclohex-1-en-1-yl)-3-methylbenzoyl]-N-[3-(dimethylamino)propyl]-10,11-dihydro-5H-pyrrolo[2,1-c][1,4]benzodiazepine-3-carboxamide]	–
27	–	Cc1cc(C(=O)N2Cc3ccc(C(=O)N4CCN(CCN5CCOCC5)CC4)n3Cc3ccccc32)ccc1C1=CCCCC1 [Example 23, {10-[4-(1-Cyclohex-1-en-1-yl)-3-methylbenzoyl]-10,11-dihydro-5H-pyrrolo[2,1-c][1,4]benzodiazepin-3-yl}{4-[2-(4-morpholinyl)ethyl]-1-piperazinyl}methanone]	–
–	7	Cc1cc(C(=O)N2Cc3ccc(C(=O)N4CCN(CCCN(C)C)CC4)n3Cc3ccccc32)ccc1C1=CCCc2ccccc21 [Example 7, {10-[4-(3,4-Dihydro-naphthalen-1-yl)-3-methyl-benzoyl]-10,11-dihydro-5H-pyrrolo[2,1-c][1,4]benzodiazepin-3-yl}-[4-(3-dimethylamino-propyl)-piperazin-1-yl]-methanone]	–
–	52	CC1=C(c2ccc(C(=O)N3Cc4ccc(C(=O)N5CCN(C)CC5)n4Cc4ccccc43)cc2C)CCCC1O (stereo not shown) [Example 10, [4-(3-Hydroxy-2-methyl-cyclohex-1-en-1-yl)-3-methyl-phenyl]-[3-(4-methyl-piperazine-1carbonyl)-10,11-dihydro-5H-pyrrolo[2,1-c][1,4]benzodiazepin-10-yl]-methanone]	–

Continued, compound first:

Compound	V1a % inhibition @ 100 nM [%]	inhibition at 0.1 µM [%]	also measured
Cc1cc(C(=O)N2Cc3ccc(C(=O)N4CCC(N5CCCCC5)CC4)n3Cc3ccccc32)ccc1C1=CCCCC1 [Example 17, {10-[4-(1-Cyclohex-1-en-1-yl)-3-methylbenzoyl]-10,11-dihydro-5H-pyrrolo[2,1-c][1,4]benzodiazepin-3-yl}[4-(1-piperidinyl)-1-piperidinyl]methanone]	30	–	–
COc1cc(C2=CCCCC2)c(Cl)cc1C(=O)N1Cc2ccc(C(=O)N(C)CCCN(C)C)n2Cc2ccccc21 [Example 2, 10-(5-Chloro-4-cyclohex-1-en-1-yl-2-methoxybenzoyl)-N-[3-(dimethylamino)propyl]-N-methyl-10,11-dihydro-5H-pyrrolo[2,1-c][1,4]benzodiazepine-3-carboxamide]	–	19	–
Cc1cc(C(=O)N2Cc3ccc(C(=O)N4CCN(C)CC4)n3Cc3ccccc32)ccc1C1=CCCCC1 [Example 4, [10-(4-Cyclohex-1-en-1-yl-3-methyl-benzoyl)-10,11-dihydro-5H-pyrrolo[2,1-c][1,4]benzodiazepin-3-yl]-(4-methyl-piperazin-1-yl)-methanone]	–	26	–
Cc1cc(C(=O)N2Cc3ccc(C(=O)N4CCC(N5CCCC5)CC4)n3Cc3ccccc32)ccc1C1=CCCCC1 [Example 19, {10-[4-(1-Cyclohex-1-en-1-yl)-3-methylbenzoyl]-10,11-dihydro-5H-pyrrolo[2,1c][1,4]benzodiazepin-3-yl}[4-(1-pyrrolidinyl)-1-piperidinyl]methanone]	33	–	–
{10-[4-(1-Cyclohexen-1-yl)-3-methylbenzoyl]-10,11-dihydro-5H-pyrrolo[2,1-c][1,4]benzodiazepin-3-yl}(4-methyl-piperazin-1-yl)methanone [Example 12]	–	–	IC50: 421 nM
Cc1cc(C(=O)N2Cc3ccc(C(=O)N4CCN(CCCN(C)C)CC4)n3Cc3ccccc32)ccc1C1=CCCCC1 [Example 5, [10-(4-Cyclohex-1-en-1-yl-3-methyl-benzoyl)-10,11-dihydro-5H-pyrrolo[2,1-c][1,4]benzodiazepin-3-yl]-[4-(3-dimethylamino-propyl)-piperazin-1-yl]-methanone]	–	56	–
COc1cc(C2=CCCCC2)c(Cl)cc1C(=O)N1Cc2ccc(C(=O)N(C)CCCN(C)C)n2Cc2ccccc21 [Example 3, 10-(5-Chloro-4-cyclohex-1-en-1-yl-2-methoxybenzoyl)-N-[3-(dimethylamino)propyl]-N-methyl-10,11-dihydro-5H-pyrrolo[2,1-c][1,4]benzodiazepine-3-carboxamide citric acid salt]	–	–	IC50: 977 nM
Cc1cc(C(=O)N2Cc3ccc(C(=O)N(C)CCN(C)C)n3Cc3ccccc32)ccc1C1=CCCCC1 [Example 15, 10-[4-(1-Cyclohex-1-en-1-yl)-3-methylbenzoyl]-N-[2-(dimethylamino)ethyl]-N-methyl-10,11-dihydro-5H-pyrrolo[2,1-c][1,4]benzodiazepine-3-carboxamide]	71	–	–
Cc1cc(C(=O)N2Cc3ccc(C(=O)NCCCn4ccnc4)n3Cc3ccccc32)ccc1C1=CCCCC1 [Example 18, 10-[4-(1-Cyclohex-1-en-1-yl)-3-methylbenzoyl]-N-[3-(1H-imidazol-1-yl)propyl]10,11-dihydro-5H-pyrrolo[2,1-c][1,4]benzodiazepine-3-carboxamide]	7	–	–
Cc1cc(C(=O)N2Cc3ccc(C(=O)N4CCN(C(C)C)CC4)n3Cc3ccccc32)ccc1C1=CCCCC1 [Example 25, {10-[4-(1-Cyclohex-1-en-1-yl)-3-methylbenzoyl]-1 0,11-dihydro-5H-pyrrolo[2,1-c][1,4]benzodiazepin-3-yl}(4-isopropyl-1-piperazinyl)methanone]	24	–	–
Cc1cc(C(=O)N2Cc3ccc(C(=O)N4CCCN(C)CC4)n3Cc3ccccc32)ccc1C1=CCCCC1 [Example 13, {10-[4-(1-Cyclohex-1-en-1-yl)-3-methylbenzoyl]-10,11-dihydro-5H-pyrrolo[2,1-c][1,4]benzodiazepin-3-yl}(4-methyl-1,4-diazepan-1-yl)methanone]	34	–	–
